In PubChem BioAssay AID1963854 (Molecular Pharmacology Branch, DTP, NCI, 2024):
“And” between values parts separate entries of the source, which are not always exact repeats. Identical values can stand only once. One block for each molecule: values may come before it.

Test system: 186277-243-T-J2-PDC complex spheroid viability
Assay: Anticancer human tumor 186277-243-T-J2-PDC patient-derived colon adenocarcinoma cell line growth inhibition [POLQ]
Settings: for viability, T/C: stronger effect = lower value
Summary of the method: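 Complex spheroid viability model combining PDC tumour cells with endothelial (HUVEC) and MSC stromal cells. Novobiocin, ART-558 or RP6685 were tested singly and in combination with standard and investigational anticancer drugs. Each was titrated in half-log steps from near clinical Cmax, or from 10 microM where Cmax was unknown.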

[1] = curve of first compound, second compound 0.0316 µM
[2] = curve of first compound, second compound 0.1 µM
[3] = curve of first compound, second compound 0.316 µM
[4] = curve of first compound, second compound 1 µM
[5] = curve of first compound, second compound 3.16 µM
[6] = curve of first compound, second compound 10 µM
[7] = second compound 0.0316 µM, first compound 0.0316 µM
[8] = second compound 0.0316 µM, first compound 0.1 µM
[9] = second compound 0.0316 µM, first compound 0.316 µM
[10] = second compound 0.0316 µM, first compound 1 µM
[11] = second compound 0.0316 µM, first compound 3.16 µM
[12] = second compound 0.0316 µM, first compound 10 µM
[13] = second compound 0.1 µM, first compound 0.0316 µM
[14] = second compound 0.1 µM, first compound 0.1 µM
[15] = second compound 0.1 µM, first compound 0.316 µM
[16] = second compound 0.1 µM, first compound 1 µM
[17] = second compound 0.1 µM, first compound 3.16 µM
[18] = second compound 0.1 µM, first compound 10 µM
[19] = second compound 0.316 µM, first compound 0.0316 µM
[20] = second compound 0.316 µM, first compound 0.1 µM
[21] = second compound 0.316 µM, first compound 0.316 µM
[22] = second compound 0.316 µM, first compound 1 µM
[23] = second compound 0.316 µM, first compound 3.16 µM
[24] = second compound 0.316 µM, first compound 10 µM
[25] = second compound 1 µM, first compound 0.0316 µM
[26] = second compound 1 µM, first compound 0.1 µM
[27] = second compound 1 µM, first compound 0.316 µM
[28] = second compound 1 µM, first compound 1 µM
[29] = second compound 1 µM, first compound 3.16 µM
[30] = second compound 1 µM, first compound 10 µM
[31] = second compound 3.16 µM, first compound 0.0316 µM
[32] = second compound 3.16 µM, first compound 0.1 µM
[33] = second compound 3.16 µM, first compound 0.316 µM
[34] = second compound 3.16 µM, first compound 1 µM
[35] = second compound 3.16 µM, first compound 3.16 µM
[36] = second compound 3.16 µM, first compound 10 µM
[37] = second compound 10 µM, first compound 0.0316 µM
[38] = second compound 10 µM, first compound 0.1 µM
[39] = second compound 10 µM, first compound 0.316 µM
[40] = second compound 10 µM, first compound 1 µM
[41] = second compound 10 µM, first compound 3.16 µM
[42] = second compound 10 µM, first compound 10 µM
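Also: spheroids exposed to compounds for seven days.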
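For viability, T/C in this document: 100% = DMSO vehicle control viability.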

SMILES: COc1cc(C2c3cc4c(cc3C(OC3OC5COC(C)OC5C(O)C3O)C3COC(=O)C23)OCO4)cc(OC)c1O (stereo unspecified) + Nc1ccc(C#CCN(C(=O)Cc2ncc(C(F)(F)F)cc2C(F)(F)F)c2ccc(F)cc2)nn1
IC50 [1]: 4570 nM | IC50 [2]: 3960 nM | IC50 [3]: 3190 nM | IC50 [4]: 3740 nM | IC50 [5]: 3600 nM | IC50 [6]: 2630 nM | viability, T/C [7]: 96.2% | viability, T/C [8]: 104% | viability, T/C [9]: 128% | viability, T/C [10]: 93.6% | viability, T/C [11]: 60.5% | viability, T/C [12]: 29.7% | viability, T/C [13]: 93.7% | viability, T/C [14]: 127% | viability, T/C [15]: 137% | viability, T/C [16]: 86.9% | viability, T/C [17]: 59.7% | viability, T/C [18]: 28.1% | viability, T/C [19]: 97.8% | viability, T/C [20]: 106% | viability, T/C [21]: 135% | viability, T/C [22]: 80% | viability, T/C [23]: 55.9% | viability, T/C [24]: 28.1% | viability, T/C [25]: 92.2% | viability, T/C [26]: 115% | viability, T/C [27]: 123% | viability, T/C [28]: 79% | viability, T/C [29]: 58.3% | viability, T/C [30]: 28.4% | viability, T/C [31]: 108% | viability, T/C [32]: 110% | viability, T/C [33]: 125% | viability, T/C [34]: 74.6% | viability, T/C [35]: 59.8% | viability, T/C [36]: 24.4% | viability, T/C [37]: 109% | viability, T/C [38]: 116% | viability, T/C [39]: 102% | viability, T/C [40]: 65.9% | viability, T/C [41]: 52.6% | viability, T/C [42]: 24.3%

IC50 (compound alone, run of 10/31/2023): > 10000 nM | IC50 (compound alone, run of 11/06/2023): > 10000 nM
SMILES: Cc1cccc(N(C)C(=O)C2C(O)CCN2c2nc(C)cc(C(F)(F)F)c2C#N)c1 (stereo unspecified)
viability, T/C (compound 0.0316 µM): 107% [middle of 13 runs] | viability, T/C (compound 0.1 µM): 102% [middle of 13 runs] | viability, T/C (compound 0.316 µM): 99.1% [middle of 13 runs] | viability, T/C (compound 1 µM): 97.2% [middle of 13 runs] | viability, T/C (compound 3.16 µM): 95.9% [middle of 13 runs] | viability, T/C (compound 10 µM): 92.7% [middle of 13 runs]

SMILES: Cn1ncnc1[C@H]1c2n[nH]c(=O)c3cc(F)cc(c23)N[C@@H]1c1ccc(F)cc1
viability, T/C (compound 0.000316 µM): 102% and 96.7% and 107% | viability, T/C (compound 0.001 µM): 100% and 97.4% and 94.3% | viability, T/C (compound 0.00316 µM): 104% and 101% and 97% | viability, T/C (compound 0.01 µM): 118% and 100% and 105% | viability, T/C (compound 0.0316 µM): 118% and 137% and 114% | viability, T/C (compound 0.1 µM): 109% and 124% and 103% | IC50 (curve of compound): > 100 nM

SMILES: CCCS(=O)(=O)Nc1ccc(F)c(C(=O)c2c[nH]c3ncc(-c4ccc(Cl)cc4)cc23)c1F
viability, T/C (compound 0.0316 µM): 93.5% and 97.3% and 96.7% | viability, T/C (compound 0.1 µM): 80.9% and 85.4% and 97.5% | viability, T/C (compound 0.316 µM): 92.2% and 94.7% and 93% | viability, T/C (compound 1 µM): 90.7% and 79.6% and 82.2% | viability, T/C (compound 3.16 µM): 82.9% and 100% and 89.3% | viability, T/C (compound 10 µM): 64.4% and 59.1% and 42.5% | IC50 (curve of compound): > 10000 nM and 8340 nM

SMILES: CC1COCCN1c1cc(C2(S(C)(=N)=O)CC2)nc(-c2ccnc3[nH]ccc23)n1 (stereo unspecified) + COC1C(OC(N)=O)C(O)C(Oc2ccc3c(O)c(NC(=O)c4ccc(O)c(CC=C(C)C)c4)c(=O)oc3c2C)OC1(C)C
IC50 [1]: 793 nM | IC50 [2]: 817 nM | IC50 [3]: 798 nM | IC50 [4]: 822 nM | IC50 [5]: 788 nM | IC50 [6]: 776 nM | viability, T/C [7]: 111% | viability, T/C [8]: 96.6% | viability, T/C [9]: 117% | viability, T/C [10]: 35.3% | viability, T/C [11]: 5.81% | viability, T/C [12]: 4.54% | viability, T/C [13]: 98% | viability, T/C [14]: 107% | viability, T/C [15]: 111% | viability, T/C [16]: 38.1% | viability, T/C [17]: 6.12% | viability, T/C [18]: 4.78% | viability, T/C [19]: 97.5% | viability, T/C [20]: 111% | viability, T/C [21]: 104% | viability, T/C [22]: 36.9% | viability, T/C [23]: 6.74% | viability, T/C [24]: 4.71% | viability, T/C [25]: 95.8% | viability, T/C [26]: 98.2% | viability, T/C [27]: 105% | viability, T/C [28]: 39.8% | viability, T/C [29]: 6.98% | viability, T/C [30]: 4.23% | viability, T/C [31]: 94.8% | viability, T/C [32]: 100% | viability, T/C [33]: 104% | viability, T/C [34]: 37.1% | viability, T/C [35]: 6.45% | viability, T/C [36]: 5.04% | viability, T/C [37]: 108% | viability, T/C [38]: 104% | viability, T/C [39]: 106% | viability, T/C [40]: 34.1% | viability, T/C [41]: 7.67% | viability, T/C [42]: 5.44%

SMILES: COc1cccc2c1C(=O)c1c(O)c3c(c(O)c1C2=O)CC(O)(C(=O)CO)CC3OC1CC(N)C(O)C(C)O1 (stereo unspecified)
viability, T/C (compound 0.0316 µM): 109% and 154% and 91.8% | viability, T/C (compound 0.1 µM): 56.6% and 106% and 42.8% | viability, T/C (compound 1 µM): 0.64% and 1.27% and 0.32% | viability, T/C (compound 3.16 µM): 0.26% and 1.06% and 0.23% | viability, T/C (compound 10 µM): 0.49% and 1.07% and 0.37% | IC50 (curve of compound): 118 nM and 250 nM and 84.5 nM

SMILES: CC(C)n1c(=O)n(C)c2cnc3cc(F)c(-c4ccc(OCCCN5CCCCC5)nc4)cc3c21
viability, T/C (compound 0.0316 µM): 86.3% and 111% and 107% | viability, T/C (compound 0.1 µM): 104% and 91.8% and 97.7% | viability, T/C (compound 0.316 µM): 89.3% and 95.6% and 91.6% | viability, T/C (compound 1 µM): 100% and 98.3% and 88.6% | viability, T/C (compound 3.16 µM): 100% and 98.2% and 98.4% | viability, T/C (compound 10 µM): 86% and 92.2% and 96.9% | IC50 (curve of compound): > 10000 nM

SMILES: Nc1ccn(C2OC(CO)C(O)C2(F)F)c(=O)n1 (stereo unspecified)
viability, T/C (compound 0.0316 µM): 7.08% and 13.1% and 7.05% | viability, T/C (compound 0.1 µM): 6.01% and 12.5% and 5.9% | viability, T/C (compound 0.316 µM): 7.05% and 13.8% and 6.01% | viability, T/C (compound 1 µM): 8.16% and 14.3% and 6.86% | viability, T/C (compound 3.16 µM): 7.56% and 13.9% and 6.67% | viability, T/C (compound 10 µM): 6.46% and 13.6% and 5.49% | IC50 (curve of compound): < 31.6 nM
